Measurements reported in patent US9024013B2, “Method for purifying rocuronium bromide” (Zhejiang Huahai Pharmaceutical Co., Ltd, priority 2011, dated 2015).

Experiment: Storage stability at room temperature of rocuronium bromide samples (related substances by HPLC)
Type: physicochemical
Settings: for Impurity A, substances involved (HPLC) / Impurity C, substances involved (HPLC) / Total impurities, substances involved (HPLC) / Single unknown impurity, substances involved (HPLC): room temperature storage

C=CC[N+]1([C@H]2C[C@H]3[C@@H]4CC[C@H]5C[C@H](O)[C@@H](N6CCOCC6)C[C@]5(C)[C@H]4CC[C@]3(C)[C@H]2OC(C)=O)CCCC1 [rocuronium bromide]
hydrolyzed impurities after storage (versus USP33 limits) (moisture 4% or more, storage period of about 10 days at room temperature): out of limits | levels of impurities after storage (moisture controlled to about 0.5%, storage period of one month at room temperature): substantially unchanged | level of impurities after storage (purified by the method of the invention, moisture 4% or less, preferably 0.5% or less, one month at room temperature): substantially unchanged | Impurity A, substances involved (HPLC) (sample moisture 0.5%, Day 0): 0.02% | Impurity C, substances involved (HPLC) (sample moisture 0.5%, Day 0): 0.06% | Total impurities, substances involved (HPLC) (sample moisture 0.5%, Day 0): 0.08% | Impurity A, substances involved (HPLC) (sample moisture 0.5%, Day 10): 0.02% | Impurity C, substances involved (HPLC) (sample moisture 0.5%, Day 10): 0.06% | Total impurities, substances involved (HPLC) (sample moisture 0.5%, Day 10): 0.08% | Impurity A, substances involved (HPLC) (sample moisture 0.5%, Day 20): 0.03% | Impurity C, substances involved (HPLC) (sample moisture 0.5%, Day 20): 0.06% | Total impurities, substances involved (HPLC) (sample moisture 0.5%, Day 20): 0.09% | Impurity A, substances involved (HPLC) (sample moisture 0.5%, Day 30): 0.03% | Impurity C, substances involved (HPLC) (sample moisture 0.5%, Day 30): 0.06% | Total impurities, substances involved (HPLC) (sample moisture 0.5%, Day 30): 0.09% | Impurity A, substances involved (HPLC) (sample moisture 4.5%, Day 0): 0.02% | Impurity C, substances involved (HPLC) (sample moisture 4.5%, Day 0): 0.06% | Total impurities, substances involved (HPLC) (sample moisture 4.5%, Day 0): 0.08% | Impurity A, substances involved (HPLC) (sample moisture 4.5%, Day 10): 0.25% | Impurity C, substances involved (HPLC) (sample moisture 4.5%, Day 10): 0.36% | Single unknown impurity, substances involved (HPLC) (sample moisture 4.5%, Day 10): 0.12% | Total impurities, substances involved (HPLC) (sample moisture 4.5%, Day 10): 0.73% | Impurity A, substances involved (HPLC) (sample moisture 4.5%, Day 20): 0.30% | Impurity C, substances involved (HPLC) (sample moisture 4.5%, Day 20): 0.40% | Single unknown impurity, substances involved (HPLC) (sample moisture 4.5%, Day 20): 0.20% | Total impurities, substances involved (HPLC) (sample moisture 4.5%, Day 20): 0.90% | Impurity A, substances involved (HPLC) (sample moisture 4.5%, Day 30): 0.35% | Impurity C, substances involved (HPLC) (sample moisture 4.5%, Day 30): 0.50% | Single unknown impurity, substances involved (HPLC) (sample moisture 4.5%, Day 30): 0.20% | Total impurities, substances involved (HPLC) (sample moisture 4.5%, Day 30): 1.05%
